According to patent publication US11939361B2, “Compositions of peptide inhibitors of Interleukin-23 receptor” (Janssen Pharmaceutica NV, priority 2020, dated 2024):
pIC50: −log10 of the molar value. Read-outs that look alike come from different tables or passages of the source.

Experiments:
[1] = system: IL-23 and IL-1β-induced IL-17A secretion in whole blood; assay: Rat whole blood assay ex vivo after oral dosing, IL-17A ELISA; format: in vivo, Sprague-Dawley rats; settings: for inhibition of IL-23 and IL-1β-induced IL-17A secretion in whole blood: p.o., blood 2 h after dosing; for pIC50: orally dosed rats, read-out: dilution-adjusted ex vivo IC50
Text: A rat whole blood assay was used to evaluate the systemic pharmacologic activity of the orally administered peptide of SEQ ID NO: 1. After oral dosing Sprague-Dawley rats with the peptide of SEQ ID NO: 1, blood was drawn from the rats and stimulated ex-vivo with rat IL-23 plus IL-1β. An ELISA assay was used to measure the presence of IL-17A. The production of IL-17A is expected to be suppressed if IL-23 is inhibited. This assay confirms that systemic exposure of orally dosed peptide of SEQ ID NO: 1 is associated with systemic activity, as measured by lower IL-17A production.
Two or six hours after dosing, animals were euthanized and blood collected as described based on the following.
For determination of peptide concentration, an aliquot of blood from peptide-treated rats was deposited into K2EDTA microtainer tubes and processed to plasma by centrifugation at 16,100×g for 5 minutes. Plasma was deposited into 5% volume of protease inhibitor (1 cocktail tablet dissolved in 2 mL PBS without Ca^++ and Mg^++) and stored at −80° C. for bioanalysis of test article by LCMS. The remainder of each blood sample was separately diluted in pre-warmed RPMI-1640 (with glutamine and HEPES) at a ratio of one part blood to four parts medium. The diluted blood was mixed by pipetting and kept at room temperature while working stocks of rat IL-23 and IL-1β were prepared in RPMI-1640. The blood was mixed again and 240 μL was pipetted per well into 96-well, round-bottom assay plates, followed by IL-23 and IL-1β stimulation as described below.
A total of 10 μL of medium supplemented with IL-23 and IL-1β or IL-1β alone was added to each well of diluted blood such that the final concentration of IL-23 was 100, 20, or 4 ng/mL and the final concentration of IL-1β was 4 ng/mL. The assay plates were incubated at 37° C. in 5% CO2. After ˜24 hours, the assay plates were centrifuged at 1,300 rpm for 6 minutes at room temperature, and at least 100 μL of cell culture supernatant were collected into 96-well, V-bottom plates. The plates containing supernatants were sealed and placed on ice for immediate measurement of IL-17A or frozen at −80° C.
To measure IL-17A in cell culture supernatants, the thawed supernatants were centrifuged at 1,300 rpm for 10 minutes at 4° C. A total of 20 μL of cell culture supernatant was mixed with 80 μL of NS buffer (provided with the rat IL-17A ELISA kit). The diluted samples as well as a freshly prepared serial titration of rat IL-17A (for standard curve) were combined with affinity tag labeled capture and reporter conjugated detector antibodies in 96-well plates (provided with the rat IL-17A ELISA kit). Following a 1-hour incubation at room temperature with shaking, each well was washed 3 times with 350 μL/well wash buffer. After the final wash, the plates were inverted and blotted to remove excess liquid. The plates were developed with TMB substrate for 10 minutes, protected from light, with shaking. After stopping the colorimetric reaction, the absorbance in individual wells was read at 450 nm using a SpectraMax 340PC plate reader.
A standard curve was generated in duplicate for each ELISA plate. The standard curve data were analyzed with a four-parameter curve fit with 1/y^2 weighting using SoftMax Pro software. Supernatant IL-17A levels were interpolated or extrapolated from plate-specific standard curves using non-background subtracted optical density at 450 nm (OD450) values in SoftMax Pro and corrected for the dilution factor used in the ELISA assay in Microsoft Excel.

clinical = settings: human, in vivo
[2] = system: IL-23 induced expression of IL-17A, IL-17F, and IL-22; assay: Rat skin gene expression downstream of intradermal IL-23; format: in vivo, Sprague-Dawley rats
Experimental: Ear inflammation was induced in Sprague-Dawley rats by daily intradermal injection of recombinant rat IL-23 on study days 0-3. Treatment with the peptide of SEQ ID NO: 1 (dose response by oral gavage; 1, 3, 10, 30, 100, and 300 mg/kg, twice a day) was initiated prophylactically starting one day prior to and continued through day 3 after induction of inflammation. All rats were humanely euthanized on day 4. An anti-IL-23 monoclonal antibody (administered intraperitoneally on days −1 and day 3) was included in all studies as a positive control and comparator.
Test article was dissolved into phosphate buffer at the appropriate concentrations and aliquoted for each dose and stored at 4° C. Retentions of each dose formulation were obtained after the initial preparation and following the final dose on day 3 into Eppendorf tubes and stored at −80° C. for bioanalysis of test article by LCMS.
Recombinant rat IL-23 was diluted with PBS to a concentration of 75 μg/mL, divided into 2.0 mL aliquots, and stored at −80° C. Daily from day 0 through day 3, rats were anesthetized with isoflurane and IL-23 was intradermally injected (i.d.) into the right ear (1.5 μg in a volume of 20 μL). In the control group, 20 μL of PBS was injected.
Starting the morning prior to IL-23 injection through the evening of day 3, rats were dosed with either vehicle (phosphate buffer) or the peptide of SEQ ID NO: 1 compound twice daily (approximately 10 hours apart between doses during the day) by oral gavage (p.o.) in a volume of 5 mL/kg. In one experiment, the peptide of SEQ ID NO: 1 was also administered subcutaneously (s.c.) in a volume of 5 mL/kg.
Anti-IL-23p19 antibody or isotype antibody was administered via intraperitoneal injection (i.p.) in a volume of 5 mL/kg on days −1 and 3.
At the end of the study, four days after induction with IL-23 (approximately 16 hours after the evening dose on day 3), animals were euthanized by CO2 asphyxiation. The ear tissue was weighed, snap frozen, and stored at −80° C. for gene expression analysis of inflammatory genes (IL-22, IL-17A, IL-17F, TNF). […]

Question: What does the source list for `CC(=O)NCCCC[C@@H]1NC(=O)[C@H](Cc2c[nH]c3c(C)cccc23)NC(=O)[C@H]([C@@H](C)O)NC(=O)[C@H](CC(N)=O)NC(=O)[C@@H](NC(C)=O)C(C)(C)SSC(C)(C)[C@@H](C(=O)N[C@@H](Cc2ccc(OCCN)cc2)C(=O)N[C@@H](Cc2ccc3ccccc3c2)C(=O)NC2(C(=O)N[C@@H](CCC(=O)O)C(=O)N[C@@H](CC(N)=O)C(=O)N[C@@H](Cc3cccnc3)C(=O)N(C)CC(N)=O)CCOCC2)NC1=O` [SEQ ID NO: 1, Ac-[Pen]*—N-T-[W(7-Me)]-[Lys(Ac)]-[Pen]*-Phe[4-(2-aminoethoxy)]-[2-Nal]-[THP]-E-N-[3-Pal]-Sarc-NH2]?
Answer: median IL-17A production relative to vehicle control ([1]; 10 mg/kg p.o., 2 hours post-dosing, 100, 20, or 4 ng/mL IL-23 and 4 ng/mL IL-1β): significantly reduced; median IL-17A levels ([1]; 10 mg/kg p.o., 6 hours post-dosing, 4 ng/mL IL-23): significant decrease; effect on ex vivo IL-17A response ([1]; 10 mg/kg p.o., 6 hours post-dosing, 100 and 20 ng/mL IL-23 and IL-1β): no significant effect; inhibition of IL-23 and IL-1β-induced IL-17A secretion in whole blood ([1]; 0.03-100 mg/kg): dose-dependent inhibition; inhibition of IL-23 and IL-1β-induced IL-17A secretion in whole blood ([1]; doses of 1 mg/kg or lower): limited effect; inhibition of IL-23 and IL-1β-induced IL-17A secretion in whole blood ([1]; doses of 30 and 100 mg/kg): complete or nearly complete inhibition; pIC50 ([1]; blood challenged with 4 ng/mL IL-23 plus 4 ng/mL IL-1β): 10.49; pIC50 ([1]; blood challenged with 20 ng/mL IL-23 plus 4 ng/mL IL-1β): 9.57; half-life (clinical): 10 to 12 h; AUC (clinical; po, 10 mg): 1.56 ng·h/mL; AUC (clinical; po, 25 mg): 6.47 ng·h/mL; AUC (clinical; po, 100 mg): 20.8 ng·h/mL; AUC (clinical; po, 300 mg): 51 ng·h/mL; half-life (clinical; po, 300 mg): 9.28 h; AUC (clinical; po, 1000 mg): 141 ng·h/mL; Cmax (clinical; po, 1000 mg): 8.3 ng/mL; Tmax (clinical; po, 1000 mg): 4.5 h; median IL-17A expression in skin ([2]; all tested doses (1-300 mg/kg b.i.d., oral)): reduced; reduction of median IL-17A expression in skin ([2]; doses of 10 mg/kg (b.i.d.) or higher): comparable degree as anti-IL-23 antibody; IL-23 induced expression of IL-17A, IL-17F, and IL-22 in skin ([2]; oral, 1-300 mg/kg b.i.d., days -1 to 3, dose dependent): attenuated
